In PMC8911585, “Unique Properties of Heme Binding of the Porphyromonas gingivalis HmuY Hemophore-like Protein Result from the Evolutionary Adaptation of the Protein Structure” (Molecules, 2022):
Like-named read-outs stand apart in the source and are kept apart here.

Columns and labels:
HmuY [1] = molecular target: T1, HmuY (Porphyromonas gingivalis, UniProt A2I2W2, H134M); assay: biochemical
HmuY [2] = molecular target: T1, HmuY; assay: biochemical; remark: listed apart in the source

T1 sequence (A2I2W2 26-216 H134M): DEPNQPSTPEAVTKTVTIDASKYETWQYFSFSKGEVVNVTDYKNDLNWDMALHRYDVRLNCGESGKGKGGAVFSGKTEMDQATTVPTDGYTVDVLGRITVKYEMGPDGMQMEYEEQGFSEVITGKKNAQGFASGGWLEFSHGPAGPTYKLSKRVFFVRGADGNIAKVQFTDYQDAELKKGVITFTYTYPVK

Compound: C=CC1=C(C)C2=Cc3c(C=C)c(C)c4[n]3[Fe][n]3c(c(C)c(CCC(=O)O)c3=CC3=NC(=C4)C(C)=C3CCC(=O)O)=CC1=N2 [Fe(II)heme]
- Kd (HmuY [1]): 0.011 µM

Compound: C=CC1=C(C)C2=Cc3c(C=C)c(C)c4[n]3[Fe]([Cl])[n]3c(c(C)c(CCC(=O)O)c3=CC3=NC(=C4)C(C)=C3CCC(=O)O)=CC1=N2 [Fe(III)heme]
- Kd (HmuY [2]): 12 µM
